Assay results published in US9364567B2, “Fragments of p97 and uses thereof” (biOasis Technologies, Inc., priority 2013, dated 2016).
Read-outs that look alike come from different tables or passages of the source.

System: in vitro model of the blood brain barrier (brain capillary endothelial cells co-cultured with glial cells)
Experiment: In vitro BBB model: passage of p97 tryptic digest peptides, LC-MS/MS peak areas in luminal and abluminal compartments
Format: in vitro ADME, rat
Procedure: Experiments were performed to evaluate the passage of mixtures of p97 peptide fragments across the blood-brain barrier (BBB) using a relevant and predictive BBB in vitro model (see Cecchelli et al., Adv. Drug Deliv. Rev. 36:165-178, 1999). The model utilizes brain capillary endothelial cells co-cultured with glial cells, to closely mimic the in vivo BBB (see Lundquist et al., Pharm. Res. 16:976-981, 2002).
To provide an in vitro system for studying brain capillary functions, a process of co-culture that closely mimics the in vivo BBB was established by culturing brain capillary endothelial cells on one side of a filter and supportive glial cells on the other side. Specifically, endothelial cells were cultured in the upper compartment on the filter and glial cells in the lower compartment on the plastic of a six-wells plate (see FIGS. 7 and 8). Under these conditions, endothelial cells retain the appropriate endothelial markers (e.g., factor VIII—related antigen, non-thrombogenic surface, production of prostacyclin, angiotensin-converting enzyme activity), and also retain the relevant characteristics of the BBB (e.g., presence of tight junctions, paucity of pinocytotic vesicles, monoamine oxidase activity, γ-glutamyltranspeptidase activity, P-glycoprotein activity, specific receptors for low density lipoproteins, and transferrin).
After removing the meninges, the brain tissue was forced gently through a nylon sieve. DMEM (Dulbecco's modified Eagle medium) supplemented with 10% (v/v) fetal calf serum (FCS, same as Fetal Bovine Serum: FBS), 2 mM glutamine, and 50 μg·ml^−1 of gentamycin was used for the dissociation of cerebral tissue and development of glial cells. […]
The glial cells were plated at a concentration of about 1.25×10^5 cells/ml in plastic six-well plates and incubated at 37° C. with 5% CO2. The medium was changed twice a week. […] Then, sub-clones of endothelial cells frozen at passage 3 were cultured on a 60-mm-diameter gelatin-coated Petri dish. Confluent endothelial cells were trypsinized and plated on the upper side of the filters at a density of 4×10^5 cells/ml. The medium used for the co-culture was DMEM supplemented with 10% (v/v) calf serum (CS) and 10% (v/v) horse serum (HS), 2 mM glutamine, and 50 μg/ml of gentamycin, and 1 ng/ml of basic fibroblast growth factor was added every other day.
On the day of the experiments, Ringer-HEPES (NaCl, 150 mM; KCl, 5.2 mM; CaCl2, 2.2 mM; MgCl2 6H20, 0.2 mM; NaHCO3, 6 mM; HEPES, 5 mM; glucose, 2.8 mM) was added to the lower compartment (abluminal side) of a six-well plate (3 mL per well). Filters with or without endothelial cells were washed with the Ringer-HEPES solution for 10 minutes at 37° C. to minimize traces of serum, and were then transferred to each well of the six-well plate. A volume of 1 mL Ringer-HEPES solution containing the peptide fragments in combination with Lucifer Yellow (20 μM) was placed in the upper compartment (luminal side) of the well.
Experiments were performed in triplicate with filters containing a confluent monolayer of endothelial cells (for BBB integrity testing or evaluation of peptide fragment passage), or in triplicate with empty filters coated only with collagen (filter test). Incubations were performed on a rocking platform for 120 minutes at 37° C.

[1] = tryptic peptides, abluminal compartment, 120 minutes, 3 micron pore size, LC-MS/MS peak area
[2] = tryptic peptides, abluminal compartment, 120 minutes, 4 micron pore size, LC-MS/MS peak area
[3] = tryptic peptides, luminal compartment, 120 minutes, 3 micron pore size, LC-MS/MS peak area
[4] = tryptic peptides, luminal compartment, 120 minutes, 4 micron pore size, LC-MS/MS peak area
[5] = tryptic peptides, abluminal/luminal peak area ratio at 120 minutes, 0.4 um insert
[6] = tryptic peptides, abluminal/luminal peak area ratio at 120 minutes, 3.0 um insert

ADTDGGLIFR (listed as Homo sapiens) [tryptic peptide fragment of human p97]
Abl 120/Lum120 peak area ratio, 0.4 um insert: 1.95 | Abl 120/Lum120 peak area ratio, 3.0 um insert: 1.44

ADTDGGLIFRLLNEGQR [tryptic peptide fragment of human p97]
Ablum 120: Area [1]: 0.00E+00 | Ablum 120: Area [2]: 5.53E+06 | Lum 120: Area [3]: 3.69E+07 | Lum 120: Area [4]: 3.36E+07

ADVTEWR (listed as Homo sapiens) [tryptic peptide fragment of human p97]
Abl 120/Lum120 peak area ratio, 0.4 um insert: 12.76 | Abl 120/Lum120 peak area ratio, 3.0 um insert: 11.26

ADVTEWRQCHLAR (listed as Homo sapiens) [tryptic peptide fragment of human p97]
Ablum 120: Area: 4.26E+06 | Lum 120: Area: 0.00E+00

AQDLFGDDHNKNGFK [tryptic peptide fragment of human p97]
Abl 120/Lum120 peak area ratio, 0.4 um insert [5]: 5.45 | Abl 120/Lum120 peak area ratio, 3.0 um insert [6]: 1.68

AVPVGEKTTYR (listed as Homo sapiens) [tryptic peptide fragment of human p97]
Ablum 120: Area: 0.00E+00 | Lum 120: Area: 0.00E+00

AVSDYFGGSCVPGAGETSYSESLCR [tryptic peptide fragment of human p97]
Ablum 120: Area [1]: 5.49E+08 | Ablum 120: Area [2]: 7.98E+08 | Lum 120: Area [3]: 5.51E+09 | Lum 120: Area [4]: 5.03E+09

CGDMAVAFR (listed as Homo sapiens) [tryptic peptide fragment of human p97]
Abl 120/Lum120 peak area ratio, 0.4 um insert: 2.26 | Abl 120/Lum120 peak area ratio, 3.0 um insert: 2.06

CGNMSEAFR (listed as Homo sapiens) [tryptic peptide fragment of human p97]
Ablum 120: Area: 2.53E+07 | Lum 120: Area: 0.00E+00

CLVENAGDVAFVR (listed as Homo sapiens) [tryptic peptide fragment of human p97]
Ablum 120: Area: 1.30E+08 | Lum 120: Area: 5.49E+08

CVGNSQERYYGYR (listed as Homo sapiens) [tryptic peptide fragment of human p97]
Lum 120: Area: 0.00E+00

DLLFKDSTSELVPIATQTYEAWLGHEYLHAMK [tryptic peptide fragment of human p97]
Ablum 120: Area [2]: 0.00E+00 | Lum 120: Area [4]: 3.76E+07

DSSHAFTLDELR (listed as Homo sapiens) [tryptic peptide fragment of human p97]
Abl 120/Lum120 peak area ratio, 0.4 um insert: 0.98

DSSHAFTLDELRGK [tryptic peptide fragment of human p97]
Ablum 120: Area [1]: 1.99E+07 | Ablum 120: Area [2]: 2.37E+07 | Lum 120: Area [3]: 0.00E+00 | Lum 120: Area [4]: 0.00E+00

EHGLKPVVGEVYDQEVGTSYYAVAVVRR [tryptic peptide fragment of human p97]
Ablum 120: Area [1]: 1.70E+07 | Ablum 120: Area [2]: 2.62E+07 | Lum 120: Area [3]: 0.00E+00 | Lum 120: Area [4]: 0.00E+00

GDSSGEGVCDKSPLER [tryptic peptide fragment of human p97]
Ablum 120: Area [1]: 1.93E+09 | Ablum 120: Area [2]: 2.34E+09 | Abl 120/Lum120 peak area ratio, 0.4 um insert [5]: 4.93 | Abl 120/Lum120 peak area ratio, 3.0 um insert [6]: 3.80 | Lum 120: Area [3]: 5.08E+08 | Lum 120: Area [4]: 4.75E+08

HSTVLENTDGK (listed as Homo sapiens) [tryptic peptide fragment of human p97]
Ablum 120: Area: 0.00E+00

IQAEQVDAVTLSGEDIYTAGK [tryptic peptide fragment of human p97]
Ablum 120: Area [1]: 0.00E+00 | Ablum 120: Area [2]: 0.00E+00 | Lum 120: Area [3]: 3.48E+06

LCRGDSSGEGVCDK [tryptic peptide fragment of human p97]
Ablum 120: Area [1]: 2.64E+05 | Ablum 120: Area [2]: 5.97E+05 | Abl 120/Lum120 peak area ratio, 0.4 um insert [5]: 2.45 | Abl 120/Lum120 peak area ratio, 3.0 um insert [6]: 1.21 | Lum 120: Area [3]: 2.17E+05 | Lum 120: Area [4]: 2.44E+05

LKPEIQCVSAK (listed as Homo sapiens) [tryptic peptide fragment of human p97]
Abl 120/Lum120 peak area ratio, 0.4 um insert: 4.81 | Abl 120/Lum120 peak area ratio, 3.0 um insert: 4.37

LLNEGQR (listed as Homo sapiens) [tryptic peptide fragment of human p97]
Ablum 120: Area: 0.00E+00

MFDSSNYHGQDLLFKDATVR [tryptic peptide fragment of human p97]
Ablum 120: Area [2]: 0.00E+00 | Lum 120: Area [4]: 0.00E+00

NYPSSLCALCVGDEQGR [tryptic peptide fragment of human p97]
Ablum 120: Area [1]: 7.34E+07 | Ablum 120: Area [2]: 1.09E+08 | Lum 120: Area [3]: 6.15E+08 | Lum 120: Area [4]: 5.52E+08

RSSHVTIDTLK (listed as Homo sapiens) [tryptic peptide fragment of human p97]
Abl 120/Lum120 peak area ratio, 0.4 um insert: 2.06 | Abl 120/Lum120 peak area ratio, 3.0 um insert: 1.23

SEDYELLCPNGAR (listed as Homo sapiens) [tryptic peptide fragment of human p97]
Abl 120/Lum120 peak area ratio, 0.4 um insert: 13.05 | Abl 120/Lum120 peak area ratio, 3.0 um insert: 8.38

SSHVTIDTLKGVK (listed as Homo sapiens) [tryptic peptide fragment of human p97]
Abl 120/Lum120 peak area ratio, 0.4 um insert: 2.42 | Abl 120/Lum120 peak area ratio, 3.0 um insert: 2.38

TVGWNVPVGYLVESGR [tryptic peptide fragment of human p97]
Ablum 120: Area [1]: 0.00E+00 | Ablum 120: Area [2]: 1.38E+07 | Lum 120: Area [3]: 9.38E+07 | Lum 120: Area [4]: 1.01E+08

VPAHAWVR
Abl 120/Lum120 peak area ratio, 0.4 um insert: 3.32 | Abl 120/Lum120 peak area ratio, 3.0 um insert: 3.56

WCATSDPEQHK (listed as Homo sapiens) [tryptic peptide fragment of human p97]
Abl 120/Lum120 peak area ratio, 0.4 um insert: 8.92 | Abl 120/Lum120 peak area ratio, 3.0 um insert: 7.41

WCVLSTPEIQK (listed as Homo sapiens) [tryptic peptide fragment of human p97]
Lum 120: Area: 0.00E+00

YYDYSGAFR (listed as Homo sapiens) [tryptic peptide fragment of human p97]
Abl 120/Lum120 peak area ratio, 0.4 um insert: 7.40
